Results on 12 compounds are retold here after patent US20250197407A1 (Jazz Pharmaceuticals Ireland Limited, priority 2022, published 2025).

The structures appear in SMILES notation.

Sequence of SOS1/KRAS WT (Q07889 564-1049): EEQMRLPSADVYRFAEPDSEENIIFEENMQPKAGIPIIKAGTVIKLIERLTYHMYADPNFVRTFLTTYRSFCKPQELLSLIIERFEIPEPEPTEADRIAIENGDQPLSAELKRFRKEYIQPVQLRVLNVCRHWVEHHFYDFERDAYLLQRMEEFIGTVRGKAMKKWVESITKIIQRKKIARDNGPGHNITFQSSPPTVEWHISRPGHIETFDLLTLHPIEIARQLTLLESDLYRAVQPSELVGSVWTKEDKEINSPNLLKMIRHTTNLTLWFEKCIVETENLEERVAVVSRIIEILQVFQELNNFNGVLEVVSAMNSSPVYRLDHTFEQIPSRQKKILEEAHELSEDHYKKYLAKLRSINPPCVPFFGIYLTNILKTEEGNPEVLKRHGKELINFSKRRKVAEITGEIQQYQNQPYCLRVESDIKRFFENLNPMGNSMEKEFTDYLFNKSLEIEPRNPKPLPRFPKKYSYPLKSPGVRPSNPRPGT

The experiment has as its target SOS1/KRAS WT (Homo sapiens (Human), UniProt Q07889). Nature of the experiment: SOS1/KRAS WT HTRF binding assay (FRET-based protein-protein interaction). Conditions: inhibition of His6-SOS1 (aa564-1049, 40 nM) binding to GST-KRAS-WT (aa1-188, 40 nM); at least two independent replicates; read-out: SOS1/KRAS WT HTRF Binding assay pIC50 (converted). Summed up: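 GST-KRAS WT (aa1-188, 40 nM) and His6-SOS1 exchange domain (aa564-1049, 40 nM) were incubated 60 min at room temperature with compound dose response in HEPES pH7.3 buffer with 10 mM EDTA and 100 mM KF. Anti-GST-Eu(K)/anti-6His-XL665 HTRF was read after 4 hr, and IC50 came from a four-parameter fit (≥2 replicates).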
A general note: TR-FRET usually uses a lanthanide donor and a delayed reading to cut background.
Turning to `CCOC1(C)C(=O)N(C)c2cc3c(C)nnc(N[C@H](C)c4cccc(C(F)(F)CO)c4F)c3cc21` (stereo partly drawn) [Compound 201, 3-ethoxy-1,3,8-trimethyl-5-[[(1R)-1-[3-(1,1-difluoro-2-hydroxy-ethyl)-2-fluoro-phenyl]ethyl]amino]pyrrolo[3,2-g]phthalazin-2-one], the IC50 is 18.2 nM.

Consider `CCC1(OC)C(=O)N(C)c2cc3c(N[C@H](C)c4cccc(C(F)(F)C(C)(C)O)c4)nnc(C)c3cc21` (stereo partly drawn) [Compound 202, 3-ethyl-3-methoxy-1,5-dimethyl-8-[[(1R)-1-[3-(1,1-difluoro-2-hydroxy-2-methyl-propyl)phenyl]ethyl]amino]pyrrolo [2,3-g]phthalazin-2-one], for which the IC50 was 10.7 nM. Turning to `CCC1(OC)C(=O)N(C)c2cc3c(N[C@H](C)c4cccc(C(F)(F)CO)c4C)nnc(C)c3cc21` (stereo partly drawn) [Compound 203, 3-ethyl-3-methoxy-1,5-dimethyl-8-[[(1R)-1-[3-(1,1-difluoro-2-hydroxy-ethyl)-2-methyl-phenyl]ethyl]amino]pyrrolo[2,3-g]phthalazin-2-one], the IC50 was 11.7 nM. The result for `CCC1(OC)C(=O)N(C)c2cc3c(N[C@H](C)c4cccc(C(F)(F)C(C)(C)O)c4F)nnc(C)c3cc21` (stereo partly drawn) [Compound 204, 3-ethyl-3-methoxy-1,5-dimethyl-8-[[(1R)-1-[3-(1,1-difluoro-2-hydroxy-2-methyl-propyl)-2-fluoro-phenyl]ethyl]amino]pyrrolo[2,3-g]phthalazin-2-one] reads 10 nM; that for `Cc1nnc(N[C@H](C)c2cccc(C(F)F)c2)c2cc3c(cc12)n(C)c(=O)n3C(C)(C)C` [Compound 205, 3-tert-butyl-5-[[(1R)-1-[3-(difluoromethyl)phenyl]ethyl]amino]-1,8-dimethyl-imidazo[4,5-g]phthalazin-2-one], 11.7 nM.

As for `CCC1(OC)C(=O)N(C)c2cc3c(N[C@H](C)c4cccc(C(F)(F)CO)c4)nnc(C)c3cc21` (stereo partly drawn) [Compound 206, 3-ethyl-3-methoxy-1,5-dimethyl-8-[[(1R)-1-[3-(1,1-difluoro-2-hydroxy-ethyl)phenyl]ethyl]amino]pyrrolo [2,3-g]phthalazin-2-one], the IC50 was 14.5 nM. Turning to `CCC1(OC)C(=O)N(C)c2cc3c(N[C@H](C)c4cccc(C(F)(F)CO)c4F)nnc(C)c3cc21` (stereo partly drawn) [Compound 207, 3-ethyl-3-methoxy-1,5-dimethyl-8-[[(1R)-1-[3-(1,1-difluoro-2-hydroxy-ethyl)-2-fluoro-phenyl]ethyl]amino]pyrrolo[2,3-g]phthalazin-2-one], the IC50 is 8.51 nM. For the compound `CCC1(OC)C(=O)N(C)c2cc3c(N[C@H](C)c4cccc(C(F)(F)C(C)(C)O)c4C)nnc(C)c3cc21` (stereo partly drawn) [Compound 209, 3-ethyl-3-methoxy-1,5-dimethyl-8-[[(1R)-1-[3-(1,1-difluoro-2-hydroxy-2-methyl-propyl)-2-methyl-phenyl]ethyl]amino]pyrrolo[2,3-g]phthalazin-2-one], the IC50 is 9.55 nM. As for `Cc1c([C@@H](C)Nc2nnc(C)c3cc4c(cc23)n(C2CC2)c(=O)n4C)cccc1C(F)(F)C(C)(C)O` [Compound 210, 3-cyclopropyl-5-[[(1R)-1-[3-(1,1-difluoro-2-hydroxy-2-methyl-propyl)-2-methyl-phenyl]ethyl]amino]-1,8-dimethyl-imidazo[4,5-g]phthalazin-2-one], the figure is 13.2 nM; as for `Cc1c(C(F)F)cccc1[C@@H](C)Nc1nnc(C)c2cc3c(cc12)n(C)c(=O)n3C` [Compound 211, 5-[[(1R)-1-[3-(difluoromethyl)-2-methyl-phenyl]ethyl]amino]-1,3,8-trimethyl-imidazo[4,5-g]phthalazin-2-one], 9.77 nM; as for `Cc1cc([C@@H](C)Nc2nnc(C)c3cc4c(cc23)n(C)c(=O)n4C)c(C)c(C(F)(F)CO)c1` [Compound 212, 5-[[(1R)-1-[3-(1,1-difluoro-2-hydroxy-ethyl)-2,5-dimethyl-phenyl]ethyl]amino]-1,3,8-trimethyl-imidazo[4,5-g]phthalazin-2-one], 12.6 nM. As for `Cc1c(C(F)F)cccc1[C@@H](C)Nc1nnc(C)c2cc3c(cc12)n(C1CC1)c(=O)n3C` [Compound 213, 3-cyclopropyl-5-[[(1R)-1-[3-(difluoromethyl)-2-methyl-phenyl]ethyl]amino]-1,8-dimethyl-imidazo[4,5-g]phthalazin-2-one], the figure is 11 nM.
